According to the supplement of paper PMC10307832:

How the values were obtained:
Assay in all cases: relative viability (nuclei count vs DMSO), 5 days (fraction); higher = more cells survive
[1] = compound: CC1=CC(=NN1)NC2=CC(=NC(=N2)/C=C/C3=CC=CC=C3)N4CCN(CC4)C + CC(=O)c1c(C)c2cnc(Nc3ccc(N4CCNCC4)cn3)nc2n(C2CCCC2)c1=O [Palbociclib] (partner 0.5 µM)
Outline: (§1)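 Lung cancer cell lines in 1536-well plates were dosed by pin tool the day after seeding, either with one drug alone or with a fixed anchor-drug dose plus five library-drug doses (not always all listed) in √10 steps. After 5 days, cells were fixed and their nuclei stained in one step (final 0.05% Triton X-100, 1% formaldehyde, 1 ug/ml Hoechst), then counted on 4× images. Relative viability is the nuclei count in treated wells divided by that in vehicle wells. Values are medians of duplicate plates.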

[2] = compound: COC1=CC(c2cc3ccccc3[nH]2)=N/C1=C\c1[nH]c(C)cc1C [Obatoclax] + CS(=O)(=O)CCNCc1ccc(-c2ccc3ncnc(Nc4ccc(OCc5cccc(F)c5)c(Cl)c4)c3c2)o1 [Lapatinib] (partner 2 µM)
Outline: as §1

[3] = compound: CC1=CC(=NN1)NC2=CC(=NC(=N2)/C=C/C3=CC=CC=C3)N4CCN(CC4)C + O=C(CCCCCCC(=O)Nc1ccccc1)NO [Vorinostat] (partner 1 µM)
Outline: as §1

[4] = compound: COC1=CC(c2cc3ccccc3[nH]2)=N/C1=C\c1[nH]c(C)cc1C [Obatoclax] + CC(C)C[C@H](NC(=O)[C@H](Cc1ccccc1)NC(=O)c1cnccn1)B(O)O [Bortezomib] (partner 0.002 µM)
Outline: as §1

Cell Line | relative viability ([1]; first compound 0.08 µM) | relative viability ([1]; first compound 0.253 µM) | relative viability ([1]; first compound 0.8 µM) | relative viability ([1]; first compound 2.53 µM) | relative viability ([1]; first compound 8 µM) | relative viability ([2]; first compound 0.01 µM) | relative viability ([2]; first compound 0.03162 µM) | relative viability ([2]; first compound 0.1 µM) | relative viability ([2]; first compound 0.3162 µM) | relative viability ([2]; first compound 1 µM) | relative viability ([3]; first compound 0.08 µM) | relative viability ([3]; first compound 0.253 µM) | relative viability ([3]; first compound 0.8 µM) | relative viability ([3]; first compound 2.53 µM) | relative viability ([3]; first compound 8 µM) | relative viability ([4]; first compound 0.01 µM) | relative viability ([4]; first compound 0.03162 µM) | relative viability ([4]; first compound 0.1 µM) | relative viability ([4]; first compound 0.3162 µM) | relative viability ([4]; first compound 1 µM)
NCI-H2087 | 0.213 | 0.17 | 0.236 | 0.164 | 0.123 | 0.954 | 0.901 | 0.776 | 0.623 | 0.304 | 0.697 | 0.954 | 0.72 | 0.324 | 0.141 | 0.645 | 0.775 | 0.665 | 0.779 | 0.335
NCI-H2126 | 0.336 | 0.341 | 0.32 | 0.306 | 0.243 | 0.736 | 0.733 | 0.809 | 0.739 | 0.802 | 0.816 | 0.82 | 0.834 | 0.674 | 0.202 | 1.13 | 1.04 | 1.09 | 1.12 | 1.07
NCI-H2228 | 0.64 | 0.727 | 0.518 | 0.0712 | 0.0545 | 1.04 | 0.826 | 0.986 | 0.627 | 0.335 | 0.778 | 0.647 | 0.328 | 0.0662 | 0.0606 | 0.96 | 1.01 | 1.25 | 0.626 | 0.367
NCI-H2347 | 0.426 | 0.412 | 0.411 | 0.435 | 0.362 | 0.933 | 0.901 | 0.542 | 0.89 | 0.857 | 0.593 | 0.686 | 0.583 | 0.44 | 0.262 | 0.935 | 0.859 | 1.07 | – | 0.95
NCI-H2405 | 0.553 | 0.555 | 0.521 | 0.411 | 0.174 | 1.05 | 1.26 | – | 1.08 | 1.13 | 1.05 | 1.1 | 1.02 | 0.406 | 0.142 | 1.01 | 0.852 | – | 0.982 | 1.07
NCI-H3122 | 0.207 | 0.19 | 0.224 | 0.174 | 0.165 | 0.987 | 1.05 | 0.964 | 1.03 | 1.03 | 1.03 | 0.977 | 0.989 | 0.879 | 0.511 | 0.966 | 1.01 | 1.02 | 1.03 | 1.06
PC-3 [JPC-3] | 0.537 | 0.587 | 0.54 | 0.529 | 0.491 | 0.456 | 0.406 | 0.469 | 0.443 | 0.457 | 0.766 | 0.876 | 0.814 | 0.543 | 0.333 | 0.905 | 0.789 | 0.815 | 0.827 | 0.977
PC-14 | 0.526 | 0.497 | 0.443 | 0.22 | 0.0464 | 0.297 | 0.309 | 0.334 | 0.257 | 0.301 | 0.673 | 0.732 | 0.491 | 0.0475 | 0.041 | 0.782 | 0.947 | 0.777 | 0.798 | 0.283
RERF-LC-KJ | 1.03 | 1.15 | 0.92 | 0.647 | 0.336 | 0.837 | 0.832 | 0.843 | 0.831 | 0.859 | 0.523 | 0.73 | 0.577 | 0.406 | 0.301 | 1.04 | 1.07 | 1.09 | 0.851 | 0.765
SK-LU-1 | 0.453 | 0.368 | 0.457 | 0.248 | 0.155 | 0.75 | 0.87 | 0.61 | 0.637 | 0.621 | 0.721 | 0.805 | 0.672 | 0.323 | 0.107 | 1.15 | 1.05 | 0.44 | 1.05 | 0.75
SW 1573 | 0.378 | 0.442 | 0.301 | 0.131 | 0.0733 | 1.06 | 1.16 | 1.31 | 1.13 | 0.559 | 0.703 | 0.751 | 0.572 | 0.156 | 0.102 | 1.04 | 0.998 | 0.925 | 0.895 | 0.476
UMC-11 | 0.327 | 0.342 | 0.323 | 0.232 | 0.232 | 1.06 | 1.04 | 0.973 | 0.613 | 0.346 | 0.371 | 0.363 | 0.201 | 0.117 | 0.0745 | 0.645 | 0.428 | 0.689 | 0.743 | 0.265
